Like-named read-outs stand apart in the source and are kept apart here. Numbered stars: 1 amine (or outer) side, 2 acyl side, 3 side chain; on linkers, the order of the positions; unused ones are H or OH. Bridge positions count the residues as written; N and C are the ends. Square brackets hold non-standard residues; d marks the D form. Peptide text beside a SMILES is read from it. Phe(4-(4-pyridyl)) = N[C@@H](Cc1ccc(-c2ccncc2)cc1)C(=O)O; Phe(4-CF3) = N[C@@H](Cc1ccc(C(F)(F)F)cc1)C(=O)O; Bip = N[C@@H](Cc1ccc(-c2ccccc2)cc1)C(=O)O; dPhe(4-NH2) = Nc1ccc(C[C@@H](N)C(=O)O)cc1; Phe(4-NH2) = Nc1ccc(C[C@H](N)C(=O)O)cc1; d(hPhe) = N[C@H](CCc1ccccc1)C(=O)O; d2Thi = N[C@H](Cc1cccs1)C(=O)O; Suc = O=C(CCC(=O)[*:2])[*:1]
Tests used:
[1] = test system: TNF-α (degradation of IkB in HeLa cells or A431 cells); assay: Human cell-based assay: inhibition of TNF-α induced degradation of IkB; details: for inhibition at 10 µM: read-out: Inhibition at Various Compound Concentrations, 10 μM; for inhibition at 5 µM: read-out: Inhibition at Various Compound Concentrations, 5 μM
rat paw edema model = assay: Rat paw edema model (carrageenan), anti-inflammatory activity; format: in vivo, Sprague-Dawley (SD) rats
Method: Compounds 3, 4, 10 and 202 were tested in a rat paw edema model to determine anti-inflammatory activity. Seven groups (one for Vehicle A [15 mL PEG400, 3 mL Graves Grain alcohol (190 proof), 1.8 mL dimethylacetamide and 10.2 mL deionized water] alone as a negative control, one for Vehicle B [0.1M NaHCO3] alone as a negative control, one for each of the four test compounds dissolved in Vehicle A, and one for indomethacin dissolved in Vehicle B as a positive control), each group containing six Sprague-Dawley (SD) rats (180-200 g) randomized by weight. Initial paw volumes were measured by placing the right hind limb of the rat up to the top of the hock in a beaker of water sitting on a scale that had been tared to zero and recording the readout.
Rats were pre-treated with either i) one of the test compounds, or ii) a positive or negative control. Vehicle A alone and test compound dissolved in Vehicle A (Compound 3-1.0 mg/kg; Compound 4-0.4 mg/kg; Compound 10-0.5 mg/kg; Compound 202-0.3 mg/kg) were administered by intravenous injection. Vehicle B alone and indomethacin (5 mg/kg in 0.1M NaHCO3) was administered by intraperitoneal injection. Thirty minutes after this pretreatment, rats were anesthetized and injected with 0.1 mL of carrageenan (10 mg/mL in water) in the subplantar region of the right hind foot using a ½ inch 26 gauge needle attached to a 1 cc syringe.
At 2, 4 and 6 hours post-carrageenan injection, the right hind foot of each rat was measured for paw volume as described above.
We next investigated the effect of varying intravenous doses of Compound 202 (0.05, 0.10, 0.30, and 1.00 mg/kg) in the same model using the same protocol (6 rats per group). […] We also investigated the affect of oral dosing (10 mg/kg) of Compound 202 in the same model. For oral dosing, a 2.5 mg/mL suspension of Compound 202 was prepared in Vehicle A. Rats were orally administered 4 mL/kg of that suspension.

[2] = molecular target: T1, TNFα / TNFα receptor (TNFα R1/Fc) (Homo sapiens, UniProt P01375); assay: Inhibition of binding of TNFα to the TNFα receptor (plate ELISA competition); details: Table 2
T1 construct: purchased R&D Systems
Procedure, shortened: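 Plates were coated with TNFα at 15 nM. Test compound and 8.33 nM receptor-Fc (PBST, 2% DMSO) were first mixed in solution for 30 min at room temperature, then transferred to the plates for another 30 min. Competition was read by absorbance at 450 nm after HRP anti-human IgG Fc detection with TMB.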

[3] = 10 μM compound, HeLa or A431 cells
[4] = read-out: Activity (IC50, inhibition of TNFα binding to TNFα R1/Fc)
[5] = 5 μM compound, HeLa or A431 cells
[6] = Table 6, 1 mg/kg IV, 2 h post-carrageenan
[7] = Table 6, 1 mg/kg IV, 4 h post-carrageenan
[8] = Table 6, 1 mg/kg IV, 6 h post-carrageenan

T1 sequence (P01375 77-233 limits assumed, species assumed): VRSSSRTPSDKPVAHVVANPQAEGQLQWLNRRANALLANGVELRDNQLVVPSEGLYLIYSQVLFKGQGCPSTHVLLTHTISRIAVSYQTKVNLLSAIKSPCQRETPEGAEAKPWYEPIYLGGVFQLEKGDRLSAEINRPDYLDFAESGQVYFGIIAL

Structure (SMILES)	IC50 [2, 4] [µM]	inhibition at 10 µM [1, 3] [%]	inhibition at 5 µM [1, 5] [%]	inhibition at 5 µM [1] [%]	inhibition at 10 µM [1] [%]	Change in Paw Volume (rat paw edema model; [6]) [mL]	Change in Paw Volume (rat paw edema model; [7]) [mL]	Change in Paw Volume (rat paw edema model; [8]) [mL]	further results
O=C(O)[C@@H]1Cc2ccc(cc2)NC(=O)[C@H](O)[C@@H](O)C(=O)N[C@H](Cc2cccs2)C(=O)N[C@@H](Cc2ccc(-c3ccccc3)cc2)C(=O)N[C@H](Cc2ccccc2)C(=O)N1 [Compound 4]	10 to 30	< 10	–	–	–	–	–	–	Change in Paw Volume (rat paw edema model; Table 3, 0.4 mg/kg IV, 2 h post-carrageenan): 0.72 ± 0.13 mL; Change in Paw Volume (rat paw edema model; Table 3, 0.4 mg/kg IV, 4 h post-carrageenan): 1.16 ± 0.16 mL; Change in Paw Volume (rat paw edema model; Table 3, 0.4 mg/kg IV, 6 h post-carrageenan): 1.16 ± 0.25 mL
O=C1CCC(=O)N[C@H](Cc2cccs2)C(=O)N[C@@H](Cc2ccc(-c3ccccc3)cc2)C(=O)N[C@H](Cc2ccccc2)C(=O)N[C@H](C(=O)N[C@@H](Cc2ccccc2)C(=O)O)Cc2ccc(cc2)N1 [Compound 10] ([d2Thi][Bip][dF][Phe(4-NH2)]F-OH; linker N-4 via Suc)	10 to 30	–	–	–	–	–	–	–	inhibition at 25 µM ([1]; 25 μM compound, HeLa or A431 cells, read-out: Inhibition at Various Compound Concentrations, 25 μM): > 80%; Change in Paw Volume (rat paw edema model; Table 3, 0.5 mg/kg IV, 2 h post-carrageenan): 0.54 ± 0.23 mL; Change in Paw Volume (rat paw edema model; Table 3, 0.5 mg/kg IV, 4 h post-carrageenan): 1.11 ± 0.31 mL; Change in Paw Volume (rat paw edema model; Table 3, 0.5 mg/kg IV, 6 h post-carrageenan): 1.23 ± 0.28 mL
O=C1COc2ccc(cc2)C[C@@H](C(=O)N[C@@H](CCc2ccccc2)C(=O)O)NC(=O)[C@H](Cc2ccccc2)NC(=O)[C@@H](Cc2ccc(-c3ccccc3)cc2)NC(=O)[C@H](Cc2cccs2)N1 [Compound 393]	–	–	–	10 to 50	> 80	1.27 ± 0.07	1.28 ± 0.08	1.42 ± 0.12	Change in Paw Volume (rat paw edema model; Table 4, 1 mg/kg IV, 2 h post-carrageenan): 1.24 ± 0.18 mL; Change in Paw Volume (rat paw edema model; Table 4, 1 mg/kg IV, 4 h post-carrageenan): 1.54 ± 0.25 mL; Change in Paw Volume (rat paw edema model; Table 4, 1 mg/kg IV, 6 h post-carrageenan): 1.56 ± 0.17 mL; IC50 ([2]; Activity (IC50, inhibition of TNFα binding to TNFα R1/Fc)): < 10 µM
O=C1COc2ccc(cc2)C[C@@H](C(=O)O)NC(=O)[C@H](Cc2ccc(O)cc2)NC(=O)[C@H](Cc2ccc(-c3ccccc3)cc2)NC(=O)[C@H](Cc2cccs2)N1 [Compound 428]	< 10	–	–	< 10	< 10	–	–	–	Change in Paw Volume (rat paw edema model; Table 8, 1 mg/kg IV, 2 h post-carrageenan): 1.27 ± 0.15 mL; Change in Paw Volume (rat paw edema model; Table 8, 1 mg/kg IV, 4 h post-carrageenan): 1.43 ± 0.22 mL; Change in Paw Volume (rat paw edema model; Table 8, 1 mg/kg IV, 6 h post-carrageenan): 1.39 ± 0.22 mL
CC(C)(C)Oc1ccc(C[C@@H]2NC(=O)[C@@H](Cc3ccc(-c4ccccc4)cc3)NC(=O)[C@H](Cc3cccs3)NC(=O)COc3ccc(cc3)C[C@@H](C(=O)O)NC2=O)cc1 [Compound 346]	< 10	–	–	> 80	50 to 80	1.17 ± 0.06	1.20 ± 0.09	1.34 ± 0.09	–

Second part, led by results:

IC50 [2, 4] [µM]	Structure (SMILES)	inhibition at 10 µM [1, 3] [%]	inhibition at 5 µM [1, 5] [%]	inhibition at 5 µM [1] [%]	inhibition at 10 µM [1] [%]	Change in Paw Volume (rat paw edema model; [6]) [mL]	Change in Paw Volume (rat paw edema model; [7]) [mL]	Change in Paw Volume (rat paw edema model; [8]) [mL]	further results
10 to 30	O=C1CCC(=O)N[C@H](CCc2ccccc2)C(=O)N[C@@H](Cc2ccc(C(F)(F)F)cc2)C(=O)N[C@H](Cc2ccccc2)C(=O)N[C@@H](C(=O)O)Cc2ccc(cc2)N1 [Compound 3] ([d(hPhe)][Phe(4-CF3)][dF][dPhe(4-NH2)]-OH; linker N-4 via Suc)	< 10	< 10	–	–	–	–	–	Change in Paw Volume (rat paw edema model; Table 3, 1.0 mg/kg IV, 2 h post-carrageenan): 0.69 ± 0.14 mL; Change in Paw Volume (rat paw edema model; Table 3, 1.0 mg/kg IV, 4 h post-carrageenan): 1.16 ± 0.32 mL; Change in Paw Volume (rat paw edema model; Table 3, 1.0 mg/kg IV, 6 h post-carrageenan): 1.22 ± 0.31 mL
< 10	O=C1CCC(=O)N[C@H](CCc2ccccc2)C(=O)N[C@@H](Cc2ccc(-c3ccncc3)cc2)C(=O)N[C@H](Cc2ccccc2)C(=O)N[C@H](C(=O)N[C@@H](Cc2ccccc2)C(=O)O)Cc2ccc(cc2)N1 [Compound 426] ([d(hPhe)][Phe(4-(4-pyridyl))][dF][Phe(4-NH2)]F-OH; linker N-4 via Suc)	10 to 50	10 to 50	–	–	–	–	–	Change in Paw Volume (rat paw edema model; Table 5, 1 mg/kg IV, 2 h post-carrageenan): 0.90 ± 0.15 mL; Change in Paw Volume (rat paw edema model; Table 5, 1 mg/kg IV, 4 h post-carrageenan): 1.11 ± 0.18 mL; Change in Paw Volume (rat paw edema model; Table 5, 1 mg/kg IV, 6 h post-carrageenan): 1.11 ± 0.23 mL
< 10	O=C1COc2ccc(cc2)C[C@@H](C(=O)O)NC(=O)[C@H](CCc2ccccc2)NC(=O)[C@@H](Cc2ccc(-c3ccccc3)cc2)NC(=O)[C@H](Cc2cccs2)N1 [Compound 348]	50 to 80	10 to 50	–	–	1.13 ± 0.10	1.30 ± 0.20	1.32 ± 0.11	–
